Experimental data taken from US10925915B2, “Use of a Copaifera extract to combat alopecia and seborrhea” (PIERRE FABRE DERMO-COSMETIQUE, priority 2017, dated 2021).

Tested on: 5α-reductase
Test: 5α-reductase activity of fibroblasts derived from human follicle dermal papillae ([C14]-testosterone metabolism to dihydrotestosterone)
Format: cell-based
Method: The study is performed on human cells derived from donor follicle dermal papillae. This model is attractive since dermal papillae have the 5α2 isoform as in prostate tissue. The cells are seeded in 24-well plates and cultured for 24 hours in DMEM culture medium supplemented with L-glutamine (2 mM), penicillin (50 U/ml), streptomycin (50 μg/ml) and fatal calf serum (10%) under standard culture conditions (37° C. and 5% CO2). The culture medium is then replaced by a DMEM analytical medium supplemented with L-glutamine (2 mM), penicillin (50 U/ml), streptomycin (50 μg/ml) and fatal calf serum (1%). This analytical medium may contain or may not contain (control conditions) the products to be tested and a compound used as reference, finasteride (10 μM), for 24 h of pre-incubation. The cells were then treated with an analytical medium containing [C^14]-testosterone and containing or not containing (control conditions) the test or reference products, and the cells were incubated for 24 h under these conditions. After incubation, supernatants were collected for testosterone metabolism analysis. All experiments were carried out three times. The steroid molecules were extracted from the supernatants with a chloroform/methanol mixture. The organic phase was collected and the different molecular species (testosterone metabolites) were separated by thin-layer chromatography using a solvent system containing dichloromethane, ethylacetate and methanol. An autoradiography was performed on the chromatography and the transformed testosterone was estimated by densitometric analysis.
Thus, the metabolism of testosterone to dihydrotestosterone reflects the 5α-reductase activity and is evaluated by the dihydrotestosterone/testosterone ratio.

Structure (SMILES) | 5α-reductase inhibition, result in words | testosterone metabolism/dihydrotestosterone production (5α-reductase activity), change versus control = 100 (10 μM, n = 3) [%] | inhibition of 5α-reductase (40 μg/ml) [%]
CC(C)(C)NC(=O)[C@H]1CC[C@H]2[C@@H]3CC[C@H]4NC(=O)C=C[C@]4(C)[C@H]3CC[C@]12C [Finasteride, finasteride] | strong inhibition | −77 | –
CCCCCCCCCCCC(=O)OCC(O)CO (stereo not drawn) [glyceryl laurate] | – | – | 19
